How the values were obtained:
[1] = test system: patient with nose bleeding and atrophy of the nasal cavity mucous membranes; conditions: person, aqueous solution 2.0 mg/ml with salicylic acid 0.5 mg/ml, one to two drops, three to four times a day
Protocol: The patient was a person with a history of nose bleeding in small quantities and sensation of dryness in the nose and eyes. The patient also reported a long history of joint pain, but no other remarkable antecedents.
The treatment for patient two began with an aqueous solution of (S)-(1-methyl-2-pyrrolidinyl)-pyridine at a concentration of 2.0 mg/ml and salicylic acid at a concentration of 0.5 mg/ml at a dose of one to two drops (about 50 μL per drop) followed by forced inhalation. The dose was repeated three to four times a day.

human cancer cells = conditions: experimental cultures of human cancer cells; concentration 5 mg/ml
[2] = test system: patient with chronic nasal congestion; conditions: aqueous solution 1.00 mg/ml with salicylic acid 0.5 mg/ml, two drops in each nostril, three or four times a day, follow-up one month later
Source text: The patient also complained of frequent headaches in the forehead region.
The dose was repeated three or four times a day. […] It was felt by the clinician that the possible causative agent/s for the chronic nasal congestion may have been external environment factors such as cold, dust, air pollution, second-hand cigarette smoke and/or seasonal allergens such as pollens.

CN1CCC[C@H]1c1cccnc1 [(S)-(1-methyl-2-pyrrolidinyl)-pyridine]
nasal bleeding (patient report) ([1]; follow-up one month later): ceased
sensation of dryness in the nose and eyes (patient report) ([1]; since the first week of treatment): diminished markedly
inhibition of proliferation (human cancer cells): 95%
patient-reported improvement of symptoms (100% being what the patient considered normal) [2]: 90%

Source: patent publication US10639300B2, “Compositions and methods for treating nasal and paranasal mucosa diseases with nicotinic acetylcholine receptor agonists” (priority 2016, dated 2020)
